Key:
Format in all cases: cell-based
Conditions in all cases: compounds at 50 nM and 500 nM
IKZF3 = target: T1, IKZF3 (Homo sapiens, UniProt Q96SW2+Q9UKT9); experiment: Western blot degradation of IKZF3 in hPBMCs (24 h)
T1 construct: The supernatant was aspirated as the extracted total cell protein; endogenous in cells; host or cells: human peripheral blood mononuclear cells (hPBMCs)
Outline: (§1)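 hPBMCs (1×10^6 cells/mL) exposed to compound at 50 nM and 500 nM for 24 h, DMSO as reference. Lysates run on SDS-PAGE and immunoblotted. Band grayscale normalized to internal control gives % protein remaining; DC50 from fitted concentration-response of band intensity versus DMSO.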

CK1α = target: T2, CK1α (Homo sapiens, UniProt P48729+Q96SW2); experiment: Western blot degradation of CK1α in hPBMCs (24 h)
T2 construct: The supernatant was aspirated as the extracted total cell protein; endogenous in cells; host or cells: human peripheral blood mononuclear cells (hPBMCs)
Outline: as §1

IKZF2 = target: T3, IKZF2 (Homo sapiens, UniProt Q96SW2+Q9UKS7); experiment: Western blot degradation of IKZF2 in hPBMCs (24 h)
T3 construct: The supernatant was aspirated as the extracted total cell protein; endogenous in cells; host or cells: human peripheral blood mononuclear cells (hPBMCs)
Outline: as §1

GSPT1 = target: T4, GSPT1 (Homo sapiens, UniProt P15170+Q96SW2); experiment: Western blot degradation of GSPT1 in hPBMCs (24 h)
T4 construct: The supernatant was aspirated as the extracted total cell protein; endogenous in cells; host or cells: human peripheral blood mononuclear cells (hPBMCs)
Outline: as §1

WEE1 = target: T5, WEE1 (Homo sapiens, UniProt P30291+Q96SW2); experiment: Western blot degradation of WEE1 in hPBMCs (24 h)
T5 construct: The supernatant was aspirated as the extracted total cell protein; endogenous in cells; host or cells: human peripheral blood mononuclear cells (hPBMCs)
Outline: as §1

IKZF1 = target: T6, IKZF1 (Homo sapiens, UniProt Q13422+Q96SW2); experiment: Western blot degradation of IKZF1 in hPBMCs (24 h)
T6 construct: The supernatant was aspirated as the extracted total cell protein; endogenous in cells; host or cells: human peripheral blood mononuclear cells (hPBMCs)
Outline: as §1

T2 sequence (P48729 whole entry): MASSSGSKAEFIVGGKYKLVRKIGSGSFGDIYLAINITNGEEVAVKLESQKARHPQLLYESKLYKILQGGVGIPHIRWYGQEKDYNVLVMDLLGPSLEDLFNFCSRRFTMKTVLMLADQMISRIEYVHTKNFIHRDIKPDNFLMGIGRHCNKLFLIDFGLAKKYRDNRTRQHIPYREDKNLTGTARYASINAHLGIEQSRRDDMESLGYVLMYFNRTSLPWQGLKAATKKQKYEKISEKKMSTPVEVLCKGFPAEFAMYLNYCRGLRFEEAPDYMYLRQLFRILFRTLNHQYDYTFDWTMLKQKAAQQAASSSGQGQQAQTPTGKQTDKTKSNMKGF
T2 sequence (Q96SW2 whole entry): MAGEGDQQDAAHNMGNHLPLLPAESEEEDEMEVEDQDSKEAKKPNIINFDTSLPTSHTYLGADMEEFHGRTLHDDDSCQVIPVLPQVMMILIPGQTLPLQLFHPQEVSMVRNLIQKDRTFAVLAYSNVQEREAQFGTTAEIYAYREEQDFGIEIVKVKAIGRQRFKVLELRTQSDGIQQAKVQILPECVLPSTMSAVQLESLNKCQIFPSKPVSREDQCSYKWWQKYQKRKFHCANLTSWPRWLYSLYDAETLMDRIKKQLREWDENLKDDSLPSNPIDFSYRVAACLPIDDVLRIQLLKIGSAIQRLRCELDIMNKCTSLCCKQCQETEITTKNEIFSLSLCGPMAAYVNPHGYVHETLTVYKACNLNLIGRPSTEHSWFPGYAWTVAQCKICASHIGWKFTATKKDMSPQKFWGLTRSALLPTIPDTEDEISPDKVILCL
T2 sequence (Q16531 whole entry partner): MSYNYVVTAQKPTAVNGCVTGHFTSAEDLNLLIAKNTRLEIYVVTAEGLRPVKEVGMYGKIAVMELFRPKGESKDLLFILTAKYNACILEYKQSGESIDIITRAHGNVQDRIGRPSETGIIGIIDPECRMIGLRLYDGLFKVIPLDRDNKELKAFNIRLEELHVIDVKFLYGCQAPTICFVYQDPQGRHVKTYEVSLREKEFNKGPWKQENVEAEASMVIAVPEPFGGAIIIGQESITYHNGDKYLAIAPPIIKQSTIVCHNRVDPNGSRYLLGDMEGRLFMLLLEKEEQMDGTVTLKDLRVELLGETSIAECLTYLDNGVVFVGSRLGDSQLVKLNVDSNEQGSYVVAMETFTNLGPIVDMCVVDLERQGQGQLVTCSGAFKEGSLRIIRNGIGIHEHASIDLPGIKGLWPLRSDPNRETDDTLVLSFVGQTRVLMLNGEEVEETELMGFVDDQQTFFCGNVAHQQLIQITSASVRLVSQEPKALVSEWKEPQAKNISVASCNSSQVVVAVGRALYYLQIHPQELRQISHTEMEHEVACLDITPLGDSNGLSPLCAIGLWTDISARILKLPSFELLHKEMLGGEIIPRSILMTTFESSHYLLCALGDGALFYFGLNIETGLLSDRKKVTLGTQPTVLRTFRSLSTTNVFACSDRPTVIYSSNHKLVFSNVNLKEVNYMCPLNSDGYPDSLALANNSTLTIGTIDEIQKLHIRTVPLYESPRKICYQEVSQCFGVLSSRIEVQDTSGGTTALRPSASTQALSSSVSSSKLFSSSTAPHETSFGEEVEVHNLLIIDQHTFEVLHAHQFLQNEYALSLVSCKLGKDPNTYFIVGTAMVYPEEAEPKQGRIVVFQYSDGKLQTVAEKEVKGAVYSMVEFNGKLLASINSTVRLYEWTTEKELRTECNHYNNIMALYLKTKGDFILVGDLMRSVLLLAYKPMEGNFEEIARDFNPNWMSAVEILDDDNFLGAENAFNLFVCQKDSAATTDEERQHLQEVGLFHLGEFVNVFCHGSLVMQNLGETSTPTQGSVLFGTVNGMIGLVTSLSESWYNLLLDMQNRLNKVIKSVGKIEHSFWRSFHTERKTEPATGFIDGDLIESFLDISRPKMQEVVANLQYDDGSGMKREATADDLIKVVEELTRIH
T5 sequence (P30291 whole entry): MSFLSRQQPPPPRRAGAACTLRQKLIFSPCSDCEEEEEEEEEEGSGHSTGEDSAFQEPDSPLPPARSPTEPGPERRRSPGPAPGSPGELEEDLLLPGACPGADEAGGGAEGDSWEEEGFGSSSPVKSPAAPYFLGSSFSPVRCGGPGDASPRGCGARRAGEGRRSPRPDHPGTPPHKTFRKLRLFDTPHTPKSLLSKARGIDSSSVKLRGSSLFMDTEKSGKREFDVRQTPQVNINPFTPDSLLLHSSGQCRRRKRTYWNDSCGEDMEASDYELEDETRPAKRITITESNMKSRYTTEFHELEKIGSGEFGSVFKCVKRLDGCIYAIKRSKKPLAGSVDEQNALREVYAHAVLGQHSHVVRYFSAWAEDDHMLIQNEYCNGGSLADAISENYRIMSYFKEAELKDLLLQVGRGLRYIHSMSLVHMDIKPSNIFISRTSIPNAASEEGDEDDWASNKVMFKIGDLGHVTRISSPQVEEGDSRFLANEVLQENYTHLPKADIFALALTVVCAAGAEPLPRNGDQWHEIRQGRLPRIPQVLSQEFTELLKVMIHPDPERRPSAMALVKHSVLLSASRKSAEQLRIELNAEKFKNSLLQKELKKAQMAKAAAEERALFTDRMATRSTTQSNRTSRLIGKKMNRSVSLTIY
T5 sequence (Q96SW2 whole entry): as the sequence (Q96SW2 whole entry) above
T5 sequence (Q16531 whole entry partner): as the sequence (Q16531 whole entry partner) above
T1 sequence (Q9UKT9 whole entry): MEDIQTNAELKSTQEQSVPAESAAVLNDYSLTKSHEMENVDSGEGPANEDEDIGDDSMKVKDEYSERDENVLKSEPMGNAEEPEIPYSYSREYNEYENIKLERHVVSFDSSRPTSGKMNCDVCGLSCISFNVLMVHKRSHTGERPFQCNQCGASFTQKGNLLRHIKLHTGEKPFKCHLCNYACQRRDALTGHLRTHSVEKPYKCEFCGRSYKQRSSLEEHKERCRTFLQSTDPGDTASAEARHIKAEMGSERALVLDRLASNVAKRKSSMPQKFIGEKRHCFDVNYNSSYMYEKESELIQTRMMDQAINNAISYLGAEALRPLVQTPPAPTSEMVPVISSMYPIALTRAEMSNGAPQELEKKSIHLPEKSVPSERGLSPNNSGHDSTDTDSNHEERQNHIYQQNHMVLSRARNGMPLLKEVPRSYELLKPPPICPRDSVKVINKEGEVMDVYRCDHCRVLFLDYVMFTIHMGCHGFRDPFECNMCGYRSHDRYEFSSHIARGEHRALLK
T1 sequence (Q96SW2 whole entry): as the sequence (Q96SW2 whole entry) above
T1 sequence (Q16531 whole entry partner): as the sequence (Q16531 whole entry partner) above
T4 sequence (P15170 whole entry): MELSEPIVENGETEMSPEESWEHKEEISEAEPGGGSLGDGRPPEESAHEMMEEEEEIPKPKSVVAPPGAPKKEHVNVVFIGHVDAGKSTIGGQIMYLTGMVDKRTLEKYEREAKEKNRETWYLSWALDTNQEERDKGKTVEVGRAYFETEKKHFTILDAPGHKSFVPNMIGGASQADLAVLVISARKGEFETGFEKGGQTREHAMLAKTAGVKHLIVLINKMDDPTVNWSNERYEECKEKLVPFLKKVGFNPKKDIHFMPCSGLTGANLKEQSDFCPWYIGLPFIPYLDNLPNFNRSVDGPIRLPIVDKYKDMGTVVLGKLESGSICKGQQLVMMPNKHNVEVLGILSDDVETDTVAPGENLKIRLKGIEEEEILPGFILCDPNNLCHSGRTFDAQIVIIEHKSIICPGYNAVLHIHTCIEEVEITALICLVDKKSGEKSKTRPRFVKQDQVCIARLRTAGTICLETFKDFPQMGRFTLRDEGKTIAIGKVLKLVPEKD
T4 sequence (Q96SW2 whole entry): as the sequence (Q96SW2 whole entry) above
T4 sequence (Q16531 whole entry partner): as the sequence (Q16531 whole entry partner) above
T3 sequence (Q9UKS7 whole entry): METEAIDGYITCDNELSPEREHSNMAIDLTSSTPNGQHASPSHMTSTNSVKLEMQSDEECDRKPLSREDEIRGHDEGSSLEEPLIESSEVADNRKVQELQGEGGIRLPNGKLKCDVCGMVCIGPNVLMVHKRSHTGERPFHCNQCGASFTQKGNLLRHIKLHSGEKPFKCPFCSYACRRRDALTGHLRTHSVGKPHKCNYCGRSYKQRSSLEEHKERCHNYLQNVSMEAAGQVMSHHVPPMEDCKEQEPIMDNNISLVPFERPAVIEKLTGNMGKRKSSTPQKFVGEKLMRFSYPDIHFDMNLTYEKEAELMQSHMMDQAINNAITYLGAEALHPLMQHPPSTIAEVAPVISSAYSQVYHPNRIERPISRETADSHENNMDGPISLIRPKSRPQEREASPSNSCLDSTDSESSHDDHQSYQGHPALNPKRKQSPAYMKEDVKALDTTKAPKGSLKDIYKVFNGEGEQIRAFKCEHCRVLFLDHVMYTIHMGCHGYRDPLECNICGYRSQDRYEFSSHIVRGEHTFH
T3 sequence (Q96SW2 whole entry): as the sequence (Q96SW2 whole entry) above
T3 sequence (Q16531 whole entry partner): as the sequence (Q16531 whole entry partner) above

Row | SMILES | IKZF3 substrate protein remaining % (IKZF3) | CK1α substrate protein remaining % (CK1α) | IKZF2 substrate protein remaining % (IKZF2) | GSPT1 substrate protein remaining % (GSPT1) | WEE1 substrate protein remaining % (WEE1) | IKZF1 substrate protein remaining % (IKZF1)
1 | Cc1nc(C2CCN(Cc3ccc4c(c3)C(=O)N(N3CCC(=O)NC3=O)C4=O)CC2)c2c(-c3ccccc3)csc2n1 [GT-08110, 2-(2,4-dioxotetrahydropyrimidin-1(2H)-yl)-5-((4-(2-methyl-5-phenylthieno[2,3-d]pyrimidin-4-yl)piperidin-1-yl)methyl)isoindoline-1,3-dione] | A (0% ≤ substrate protein remaining % ≤80%) | A (0% ≤ substrate protein remaining % ≤80%) | A (0% ≤ substrate protein remaining % ≤80%) | A (0% ≤ substrate protein remaining % ≤80%) | A (0% ≤ substrate protein remaining % ≤80%) | A (0% ≤ substrate protein remaining % ≤80%)
2 | Cc1nc(C2CCN(Cc3ccc4c(c3)C(=O)N(N3CCC(=O)NC3=O)C4=O)CC2)c2c3c(sc2n1)CCCC3 [GT-08111, 2-(2,4-dioxotetrahydropyrimidin-1(2H)-yl)-5-((4-(2-methyl-5,6,7,8-tetrahydrobenzo[4,5]thieno[2,3-d]pyrimidin-4-yl)piperidin-1-yl)methyl)isoindoline-1,3-dione] | B (80%< substrate protein remaining % ≤100%) | A (0% ≤ substrate protein remaining % ≤80%) | B (80%< substrate protein remaining % ≤100%) | A (0% ≤ substrate protein remaining % ≤80%) | B (80%< substrate protein remaining % ≤100%) | B (80%< substrate protein remaining % ≤100%)
3 | O=C1CCN(N2Cc3cc(CN4CCC(c5ncnc6sc7c(c56)CCCC7)CC4)ccc3C2=O)C(=O)N1 [GT-08112, 1-(1-oxo-5-((4-(5,6,7,8-tetrahydrobenzo[4,5]thieno[2,3-d]pyrimidin-4-yl)piperidin-1-yl)methyl)isoindolin-2-yl)dihydropyrimidine-2,4(1H,3H)-dione] | B (80%< substrate protein remaining % ≤100%) | B (80%< substrate protein remaining % ≤100%) | B (80%< substrate protein remaining % ≤100%) | A (0% ≤ substrate protein remaining % ≤80%) | B (80%< substrate protein remaining % ≤100%) | B (80%< substrate protein remaining % ≤100%)
4 | O=C1CCN(N2Cc3cc(CN4CCC(c5ncnc6sc7c(c56)CCC7)CC4)ccc3C2=O)C(=O)N1 [GT-08113, 1-(5-((4-(6,7-dihydro-5H-cyclopenta[4,5]thieno[2,3-d]pyrimidin-4-yl)piperidin-1-yl)methyl)-1-oxoisoindolin-2-yl)dihydropyrimidine-2,4(1H,3H)-dione] | B (80%< substrate protein remaining % ≤100%) | A (0% ≤ substrate protein remaining % ≤80%) | B (80%< substrate protein remaining % ≤100%) | A (0% ≤ substrate protein remaining % ≤80%) | B (80%< substrate protein remaining % ≤100%) | B (80%< substrate protein remaining % ≤100%)
5 | Cc1nc(C2CCN(Cc3ccc4c(c3)CN(N3CCC(=O)NC3=O)C4=O)CC2)c2c3c(sc2n1)CCC3 [GT-08114, 1-(5-((4-(2-methyl-6,7-dihydro-5H-cyclopenta[4,5]thieno[2,3-d]pyrimidin-4-yl)piperidin-1-yl)methyl)-1-oxoisoindolin-2-yl)dihydropyrimidine-2,4(1H,3H)-dione] | B (80%< substrate protein remaining % ≤100%) | B (80%< substrate protein remaining % ≤100%) | B (80%< substrate protein remaining % ≤100%) | A (0% ≤ substrate protein remaining % ≤80%) | B (80%< substrate protein remaining % ≤100%) | B (80%< substrate protein remaining % ≤100%)
6 | O=C1CCN(N2Cc3cc(CN4CCC(c5ncc6ccsc6n5)CC4)ccc3C2=O)C(=O)N1 [GT-08115, 1-(1-oxo-5-((4-(thieno[2,3-d]pyrimidin-2-yl)piperidin-1-yl)methyl)isoindolin-2-yl)dihydropyrimidine-2,4(1H,3H)-dione] | B (80%< substrate protein remaining % ≤100%) | A (0% ≤ substrate protein remaining % ≤80%) | B (80%< substrate protein remaining % ≤100%) | A (0% ≤ substrate protein remaining % ≤80%) | B (80%< substrate protein remaining % ≤100%) | B (80%< substrate protein remaining % ≤100%)
7 | O=C1CCN(N2Cc3cc(CN4CC=C(c5ncnc6sccc56)CC4)ccc3C2=O)C(=O)N1 [GT-08116, 1-(1-oxo-5-((4-(thieno[2,3-d]pyrimidin-4-yl)-3,6-dihydropyridin-1(2H)-yl)methyl)isoindolin-2-yl)dihydropyrimidine-2,4(1H,3H)-dione] | A (0% ≤ substrate protein remaining % ≤80%) | A (0% ≤ substrate protein remaining % ≤80%) | B (80%< substrate protein remaining % ≤100%) | A (0% ≤ substrate protein remaining % ≤80%) | A (0% ≤ substrate protein remaining % ≤80%) | A (0% ≤ substrate protein remaining % ≤80%)
8 | Cc1csc2ncnc(C3=CCN(Cc4ccc5c(c4)CN(N4CCC(=O)NC4=O)C5=O)CC3)c12 [GT-08117, 1-(5-((4-(5-methylthieno[2,3-d]pyrimidin-4-yl)-3,6-dihydropyridin-1(2H)-yl)methyl)-1-oxoisoindolin-2-yl)dihydropyrimidine-2,4(1H,3H)-dione] | A (0% ≤ substrate protein remaining % ≤80%) | A (0% ≤ substrate protein remaining % ≤80%) | B (80%< substrate protein remaining % ≤100%) | A (0% ≤ substrate protein remaining % ≤80%) | B (80%< substrate protein remaining % ≤100%) | B (80%< substrate protein remaining % ≤100%)
9 | O=C1CCN(N2Cc3cc(CN4CCC(c5cccc(F)c5F)CC4)ccc3C2=O)C(=O)N1 [GT-08194, 1-(5-((4-(2,3-difluorophenyl)piperidin-1-yl)methyl)-1-oxoisoindolin-2-yl)dihydropyrimidine-2,4(1H,3H)-dione] | B (80%< substrate protein remaining % ≤100%) | B (80%< substrate protein remaining % ≤100%) | B (80%< substrate protein remaining % ≤100%) | A (0% ≤ substrate protein remaining % ≤80%) | B (80%< substrate protein remaining % ≤100%) | A (0% ≤ substrate protein remaining % ≤80%)
10 | O=C1CCN(N2C(=O)c3ccc(CN4CCC(c5ncnc6sc7c(c56)CCCC7)CC4)cc3C2=O)C(=O)N1 [GT-08424, 2-(2,4-dioxotetrahydropyrimidin-1(2H)-yl)-5-((4-(5,6,7,8-tetrahydrobenzo[4,5]thieno[2,3-d]pyrimidin-4-yl)piperidin-1-yl)methyl)isoindoline-1,3-dione] | B (80%< substrate protein remaining % ≤100%) | A (0% ≤ substrate protein remaining % ≤80%) | B (80%< substrate protein remaining % ≤100%) | A (0% ≤ substrate protein remaining % ≤80%) | B (80%< substrate protein remaining % ≤100%) | B (80%< substrate protein remaining % ≤100%)
11 | O=C1CCN(N2C(=O)c3ccc(CN4CCC(c5ncc6ccsc6n5)CC4)cc3C2=O)C(=O)N1 [GT-08427, 2-(2,4-dioxotetrahydropyrimidin-1(2H)-yl)-5-((4-(thieno[2,3-d]pyrimidin-2-yl)piperidin-1-yl)methyl)isoindoline-1,3-dione] | B (80%< substrate protein remaining % ≤100%) | B (80%< substrate protein remaining % ≤100%) | A (0% ≤ substrate protein remaining % ≤80%) | B (80%< substrate protein remaining % ≤100%) | A (0% ≤ substrate protein remaining % ≤80%) | B (80%< substrate protein remaining % ≤100%)
12 | Cc1csc2ncnc(C3=CCN(Cc4ccc5c(c4)C(=O)N(N4CCC(=O)NC4=O)C5=O)CC3)c12 [GT-08428, 2-(2,4-dioxotetrahydropyrimidin-1(2H)-yl)-5-((4-(5-methylthieno[2,3-d]pyrimidin-4-yl)-3,6-dihydropyridin-1(2H)-yl)methyl)isoindoline-1,3-dione] | A (0% ≤ substrate protein remaining % ≤80%) | B (80%< substrate protein remaining % ≤100%) | A (0% ≤ substrate protein remaining % ≤80%) | B (80%< substrate protein remaining % ≤100%) | A (0% ≤ substrate protein remaining % ≤80%) | B (80%< substrate protein remaining % ≤100%)
